Data set [1] concerns the target T1, glucocerebrosidase (Gcase) (Homo sapiens, UniProt P04062).
T1 construct: micellar solution containing 10 nM GCase and 100 nM saposin C
T1 sequence (P04062 40-536): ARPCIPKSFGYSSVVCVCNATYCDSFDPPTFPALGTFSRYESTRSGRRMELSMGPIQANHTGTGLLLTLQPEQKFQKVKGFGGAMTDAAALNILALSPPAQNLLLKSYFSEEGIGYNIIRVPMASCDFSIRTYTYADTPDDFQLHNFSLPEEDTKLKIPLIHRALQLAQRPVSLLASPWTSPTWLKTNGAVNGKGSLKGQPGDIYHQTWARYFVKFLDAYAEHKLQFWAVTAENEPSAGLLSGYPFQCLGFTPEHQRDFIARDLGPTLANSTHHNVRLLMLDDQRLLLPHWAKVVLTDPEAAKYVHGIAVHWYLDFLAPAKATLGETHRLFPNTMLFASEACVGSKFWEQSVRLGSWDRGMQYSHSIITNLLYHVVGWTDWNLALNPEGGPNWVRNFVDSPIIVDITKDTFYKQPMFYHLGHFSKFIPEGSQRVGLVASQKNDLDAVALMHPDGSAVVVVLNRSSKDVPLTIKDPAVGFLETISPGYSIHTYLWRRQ
Kind of data set: Glucocerebrosidase (Gcase) activation assay, 4-methylumbelliferyl-beta-D-glucopyranoside substrate, with saposin C. As to conditions: 10 nM GCase, 100 nM saposin C, pH 4.7; for activation at 0.1 µM: 0.1 μM test compound, read-out: Percent Gease Activation 0.1 μM Test Compound; for activation at 1 µM: 1 μM test compound, read-out: Percent Gease Activation 1 μM Test Compound. In kind it is biochemical. The method, then:
The ability of exemplary compounds to activate glucocerebrosidase (Gcase) was measured.
A 484 μL aliquot of a 1.0 mg/mL solution of phosphatidylserine (PS) (Sigma P7769) in chloroform was evaporated under a stream of nitrogen for 1 hour. The lipid film was dissolved over 4 minutes of vigorous vortexing in 40 mL of 176 mM K2HPO4/50 mM citric acid (pH 4.7) containing 7.5 μL of triton X-100, resulting in a mixed micellar preparation with a composition of 0.32 mM triton and 0.37 mol % PS. 4-Methylumbelliferyl-beta-D-glucopyranoside (ACROS-337025000) was dissolved in the micellar solution to a final concentration of 2 mM for use as the reaction substrate.
Test compounds were diluted to the desired concentrations with dimethylsulfoxide (DMSO) from 10 mM stocks, and 0.41 μL of the DMSO compound mixture was added to 100 μL of micellar solution containing 10 nM GCase and 100 nM saposin C (Enzo ALX-201-262-C050). Pre-incubation was allowed to occur for 30 minutes at room temperature, after which the reaction was initiated by combining 25 μL of substrate solution with 25 μL of compound/GCase/saposin mixture. The reaction proceeded for 15 minutes at room temperature and was stopped by adding 150 μL of 1M glycine, pH 12.5. The endpoint of the reaction was monitored by measuring fluorescence intensity (excitation: 365 nm; emission: 440 nm) on a SpectraMax i3 instrument (Molecular Devices). Test compounds were screened at 1.0 and 0.1 μM final concentration, and subsequent 8-point dose response curves were obtained using 3-fold dilutions from a maximum final concentration of 5 μM.
For experiments in which the test compound was used at a concentration of 1.0 μM, the symbol “+” indicates less than 30% Gcase activation; the symbol “++” indicates Gcase activation in the range of 30% up to 60%; and the symbol “+++” indicates Gcase activation greater than 60%. For experiments in which the test compound was used at a concentration of 0.1 μM, the symbol “*” indicates less than 10% Gcase activation; the symbol “**” indicates Gcase activation in the range of 10% up to 20%; and the symbol “***” indicates greater than 20% Gcase activation.

Data set [2] can be described thus: Compound solubility in water. In kind it is physicochemical.

36 compounds from patent publication US10786508B2, “Substituted imidazo[1,5-A]-pyrimidines and their use in the treatment of medical disorders” (Lysosomal Therapeutics Inc., priority 2014, dated 2020) can be followed below.

Structures are written as SMILES. In brackets after ≈: the same amount, converted by molar mass.

As usually defined, the solubility is how much of the substance goes into solution per volume. The low end stands for little dissolved substance, the high end for much dissolved substance. For the compound `Cc1cc(C)n2cnc(C(=O)N[C@@H](C)c3cccc(Cl)c3)c2n1` [III-77], in data set [1], the activation at 0.1 µM was below 10% and the activation at 1 µM was in the range of 30 to 60%. The same compound came in with a solubility in data set [2] of 26 µg/mL (≈ 79.1 µM).
For the compound `COc1ccccc1[C@H](C)NC(=O)c1ncn2c(C)cc(C)nc12` [III-75], in data set [1], the activation at 0.1 µM was below 10% and the activation at 1 µM was 30 to 60%. Besides, the concentration in solution in data set [2] (solubility) came to 22.6 µg/mL (≈ 69.7 µM).
On the same counts, the results for `Cc1cc(C)n2cnc(C(=O)Nc3cccc4c3CCC4)c2n1` [III-65] are 10 to 20%, above 60% and 0.9 µg/mL (≈ 2.94 µM).
The corresponding values for `Cc1cc(C(C)C)n2cnc(C(=O)NC3(C)CCOc4c(F)cccc43)c2n1` (stereo not drawn) [III-37] are below 10%, 30 to 60% and 28 µg/mL (≈ 73.2 µM).
As for `CCC(C)(NC(=O)c1ncn2c(C)cc(C)nc12)c1ccc(F)cc1` (stereo not drawn) [III-43], in data set [1], the activation at 0.1 µM was 10 to 20% and the activation at 1 µM is above 60%. The solubility in data set [2] is 14.7 µg/mL (≈ 43.2 µM).
For `CCCCO[C@H]1[C@@H]2CC[C@H]1C[C@@H](NC(=O)c1ncn3c(C)cc(C)nc13)C2` [III-85], in data set [1], the activation at 0.1 µM is below 10% and the activation at 1 µM is above 60%. For the same compound, in data set [2], the concentration in solution (solubility) was 13.1 µg/mL (≈ 35.4 µM).
The corresponding values for `COCc1cc(C(C)C)nc2c(C(=O)NC(C)(C)c3cccc(OC4CC4)c3)ncn12` [III-58] are 10 to 20%, above 60% and 28.9 µg/mL (≈ 68.4 µM).
With `COc1cc(NC(=O)c2ncn3c(C)cc(C)nc23)ccc1-c1cnco1` [III-14], in data set [1], the activation at 0.1 µM was below 10% and the activation at 1 µM was below 30%. Besides, in data set [2], the concentration in solution (solubility) came to 0.5 µg/mL (≈ 1.38 µM).
On the same counts, the results for `Cc1cc(C)n2cnc(C(=O)Nc3ccc4c(C)cc(=O)oc4c3)c2n1` [III-9] are below 10%, below 30% and 0.3 µg/mL (≈ 0.861 µM).
For the compound `CCOCc1cccc(C(C)(C)NC(=O)c2ncn3c(COC)cc(C4CC4)nc23)c1` [III-59], in data set [1], the activation at 0.1 µM is below 10% and the activation at 1 µM fell in the range of 30 to 60%. This compound also had a solubility in data set [2] of 26.3 µg/mL (≈ 62.2 µM).
The corresponding values for `C#Cc1ccc(NC(=O)c2ncn3c(C)cc(C)nc23)cc1` [III-1] are 10 to 20%, above 60% and below 1.5 µg/mL.
On the same counts, the results for `CCOCc1cccc(C(C)(C)NC(=O)c2ncn3c(C4CC4)cc(COC)nc23)c1` [III-73] are below 10%, below 30% and 31.6 µg/mL (≈ 74.8 µM).
On the same counts, the results for `Cc1cc(C)n2cnc(C(=O)NC3(C)CCCc4ccccc43)c2n1` (stereo not drawn) [III-36] are below 10%, above 60% and 11.9 µg/mL (≈ 35.6 µM).
As for `Cc1cc(C)n2cnc(C(=O)Nc3ccc4[nH]ncc4c3)c2n1` [III-8], in data set [1], the activation at 0.1 µM was below 10% and the activation at 1 µM is below 30%. Besides, in data set [2], the solubility turned out to be 0.4 µg/mL (≈ 1.31 µM).
The corresponding values for `CO[C@H]1CC[C@@H](C(C)(C)NC(=O)c2ncn3c(C)cc(C)nc23)CC1` [III-63] are below 10%, 30 to 60% and 36.2 µg/mL (≈ 105 µM).
On the same counts, the results for `Cc1cc(C)n2cnc(C(=O)Nc3ncc(C)[nH]3)c2n1` [III-6] are below 10%, below 30% and above 54 µg/mL.
For the compound `[2H]C1(NC(=O)c2ncn3c(C)cc(C)nc23)CCCCc2ccccc21` (stereo not drawn) [III-38], in data set [1], the activation at 0.1 µM fell in the range of 10 to 20% and the activation at 1 µM is above 60%. In data set [2], this compound registered a solubility of 14.9 µg/mL (≈ 44.4 µM).
As to `Cc1cc(C)n2cnc(C(=O)N[C@H](C)c3ccc(Cl)cc3)c2n1` [III-83], in data set [1], the activation at 0.1 µM was below 10% and the activation at 1 µM was in the range of 30 to 60%. Also, in data set [2], the concentration in solution (solubility) was 16.5 µg/mL (≈ 50.2 µM).
As to `CCCOc1cccc(C(C)(C)NC(=O)c2ncn3c(COC)cc(COC)nc23)c1` [III-52], in data set [1], the activation at 0.1 µM is 10 to 20% and the activation at 1 µM is above 60%. Besides, the solubility in data set [2] worked out at 37.6 µg/mL (≈ 88.2 µM).
On the same counts, the results for `O=C(NC1CCCc2ccccc21)c1ncn2c(C(F)F)cc(C(F)F)nc12` (stereo not drawn) [III-32] are below 10%, below 30% and 17.2 µg/mL (≈ 43.8 µM).
The corresponding values for `Cc1cc(C)n2cnc(C(=O)Nc3ccc(Cl)c(-c4cnco4)c3)c2n1` [III-27] are below 10%, 30 to 60% and 0.2 µg/mL (≈ 0.544 µM).
The corresponding values for `Cc1cc(C)n2cnc(C(=O)NC3CCCc4ccccc43)c2n1` (stereo not drawn) [III-71] are below 10%, 30 to 60% and 70.7 µg/mL (≈ 221 µM).
With `Cc1cc(C)n2cnc(C(=O)N[C@@H](C)c3ccccc3F)c2n1` [III-74], in data set [1], the activation at 0.1 µM was below 10% and the activation at 1 µM was below 30%. The same compound displayed a solubility in data set [2] of 37.3 µg/mL (≈ 119 µM).
Regarding `Cc1cc(C)n2cnc(C(=O)Nc3ccc(-c4ccco4)nc3)c2n1` [III-66], in data set [1], the activation at 0.1 µM is below 10% and the activation at 1 µM is below 30%. In addition, in data set [2], the solubility was below 0.01 µg/mL.
The corresponding values for `Cc1cc(C)n2cnc(C(=O)Nc3ccc(Cl)c(COc4cccnc4)c3)c2n1` [III-23] are 10 to 20%, above 60% and 0.3 µg/mL (≈ 0.736 µM).
In the case of `Cc1cc(C)n2cnc(C(=O)Nc3ccc4nc(O)cc(C)c4c3)c2n1` [III-13], in data set [1], the activation at 0.1 µM was below 10% and the activation at 1 µM was below 30%. Besides, in data set [2], the solubility worked out at 0.3 µg/mL (≈ 0.864 µM).
With `COCc1cc(C2CC2)n2cnc(C(=O)NC(C)(C)c3cccc(C#N)c3)c2n1` [III-54], in data set [1], the activation at 0.1 µM is below 10% and the activation at 1 µM is below 30%. The solubility in data set [2] was determined as 23.4 µg/mL (≈ 60.1 µM).
On the same counts, the results for `Cc1cc(C)n2cnc(C(=O)N[C@H]3CC[C@H](OC4CCC(C)(C)CC4)CC3)c2n1` [III-46] are 10 to 20%, above 60% and 4.9 µg/mL (≈ 12.3 µM).
Consider `CCCCCO[C@H]1CC[C@H](NC(=O)c2ncn3c(C)cc(C)nc23)CC1` [III-70], for which, in data set [1], the activation at 0.1 µM was 10 to 20% and the activation at 1 µM lay in the range of 30 to 60%. In addition, the solubility in data set [2] was determined as 19.6 µg/mL (≈ 54.7 µM).
With `Cc1cc(C)n2cnc(C(=O)Nc3ccc4[nH]c(-c5ccco5)nc4c3)c2n1` [III-20], in data set [1], the activation at 0.1 µM is below 10% and the activation at 1 µM is below 30%. The compound further yielded a solubility in data set [2] of 0.3 µg/mL (≈ 0.806 µM).
Take `Cc1cc(C)n2cnc(C(=O)Nc3ccc4c(=O)cc(C)oc4c3)c2n1` [III-17]: in data set [1], the activation at 0.1 µM is below 10% and the activation at 1 µM is below 30%. The compound also showed a solubility in data set [2] of 0.4 µg/mL (≈ 1.15 µM).
The corresponding values for `Cc1cc(C)n2cnc(C(=O)Nc3ccc4c(c3)CCC4)c2n1` [III-22] are 10 to 20%, above 60% and 4.7 µg/mL (≈ 15.3 µM).
In the case of `CCCCCCO[C@H]1CC[C@H](NC(=O)c2ncn3c(C)cc(C)nc23)C1` [III-47], in data set [1], the activation at 0.1 µM was below 10% and the activation at 1 µM was above 60%. In data set [2], the solubility worked out at 30.6 µg/mL (≈ 85.4 µM).
As to `CO[C@H]1CC[C@H](C(C)(C)NC(=O)c2ncn3c(C)cc(C)nc23)CC1` [III-62], in data set [1], the activation at 0.1 µM was below 10% and the activation at 1 µM was below 30%. The compound further displayed a solubility in data set [2] of 27 µg/mL (≈ 78.4 µM).
`Cc1cc(C)n2cnc(C(=O)Nc3ccc4nc(C)sc4c3)c2n1` [III-21]: in data set [1], the activation at 0.1 µM is below 10% and the activation at 1 µM was below 30%. For the same compound, the solubility in data set [2] came out at 1.1 µg/mL (≈ 3.26 µM).
On the same counts, the results for `Cc1cc(C(C)C)n2cnc(C(=O)Nc3cccc4c3CCC4)c2n1` [III-45] are above 20%, above 60% and 1 µg/mL (≈ 2.99 µM).
